The target in experiment [1] is T1, S. typhimurium CobB; CobB^S. typhimurium (Salmonella enterica, UniProt P0A2F2).
T1 sequence (P0A2F2 1-273): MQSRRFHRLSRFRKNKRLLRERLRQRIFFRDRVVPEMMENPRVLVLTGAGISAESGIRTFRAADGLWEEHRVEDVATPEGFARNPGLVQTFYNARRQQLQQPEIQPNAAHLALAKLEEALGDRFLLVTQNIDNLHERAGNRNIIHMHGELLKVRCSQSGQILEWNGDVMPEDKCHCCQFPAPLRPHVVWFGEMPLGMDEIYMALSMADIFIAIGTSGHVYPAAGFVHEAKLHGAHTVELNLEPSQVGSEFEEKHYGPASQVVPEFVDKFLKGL
Description: affinity measurement, method not given. The class given is binding.

Experiment [2] has as its target T2, CobB (Escherichia coli, UniProt P75960, R8A).
T2 sequence (P75960 1-279 R8A): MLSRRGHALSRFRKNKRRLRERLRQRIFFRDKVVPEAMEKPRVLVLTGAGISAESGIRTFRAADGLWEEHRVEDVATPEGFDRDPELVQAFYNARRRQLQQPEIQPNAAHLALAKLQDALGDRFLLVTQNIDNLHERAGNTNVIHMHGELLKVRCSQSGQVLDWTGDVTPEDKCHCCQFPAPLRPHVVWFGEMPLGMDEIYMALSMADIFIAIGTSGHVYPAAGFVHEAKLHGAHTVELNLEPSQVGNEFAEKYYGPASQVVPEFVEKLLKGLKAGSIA
The experiment in a line: isothermal titration calorimetry. Type of experiment: binding. A general note: Isothermal titration calorimetry measures the heat released or taken up as one component is titrated into another.

The target of experiment [3] is T3, CobB (Escherichia coli, UniProt P75960).
T3 sequence (P75960 1-279): T2 sequence (P75960 1-279 R8A) with A8R
The experiment in a line: deacetylation of an acetylated peptide, HPLC. Type of experiment: biochemical.

Experiment [4] addresses T4, CobB (Escherichia coli, UniProt P75960, R17A).
T4 sequence (P75960 1-279 R17A): T2 sequence (P75960 1-279 R8A) with A8R, R17A
The experiment in a line: isothermal titration calorimetry. Type of experiment: binding.

In experiment [5] the target is T5, CobB (Escherichia coli, UniProt P75960, E21A).
T5 sequence (P75960 1-279 E21A): T2 sequence (P75960 1-279 R8A) with A8R, E21A
Description: isothermal titration calorimetry. The class given is binding.

For experiment [6], the target named is T3, CobB. Description: isothermal titration calorimetry. Type of experiment: binding.

The text below walks through data of publication doi:10.1101/362293v1 (biorxiv, 2018).

Positions count from the first letter of the chain named.

What is called Kd is the concentration at which binding is half-saturated. For orientation: Ki means the equilibrium dissociation constant of an inhibitor or competing ligand from its target. Turning to `Nc1nc2c(ncn2[C@@H]2O[C@@H]3CO[P@](=O)(O)O[C@H]4[C@@H](O)[C@H](n5cnc6c(=O)[nH]c(N)nc65)O[C@@H]4CO[P@](=O)(O)O[C@H]3[C@H]2O)c(=O)[nH]1` [c-di-GMP], the Kd came to 15.5 µM in experiment [1]; 1800 µM on CobB [2]; 1600 µM at CobB [4]; 320 µM at CobB [5]; 21.6 µM at CobB [6]. At CobB [3], this molecule registered a Ki of 32.3 µM.
